Data as given in paper PMC5218480 (PLoS ONE, 2017).

Tested on: MV-4-11 cells
Assay: Gene expression microarray analysis (Affymetrix PrimeView) and GSEA
Assay type: cell-based, human
Parameters: RFU PODN (11730768_x_at) / Fold change /veh PODN (11730768_x_at) / RFU LINC00158 (11744669_a_at) / Fold change /veh LINC00158 (11744669_a_at) / RFU DUSP10 (11751237_a_at) / Fold change /veh DUSP10 (11751237_a_at) / RFU ID3 (11757404_x_at) / Fold change /veh ID3 (11757404_x_at) / RFU PLEKHG5 (11737974_s_at) / Fold change /veh PLEKHG5 (11737974_s_at) / RFU LRRC4B (11730491_at) / Fold change /veh LRRC4B (11730491_at) / RFU GIMAP4 (11747438_a_at) / Fold change /veh GIMAP4 (11747438_a_at) / RFU KRT8 (11758183_x_at) / Fold change /veh KRT8 (11758183_x_at) / RFU CNN1 (11734310_a_at) / Fold change /veh CNN1 (11734310_a_at) / RFU VPS37D (11726825_at) / Fold change /veh VPS37D (11726825_at) / RFU C10orf10 (11716522_x_at) / Fold change /veh C10orf10 (11716522_x_at) / RFU KIR2DL2 /// KIR2DL4 /// KIR2DL5A /// KIR2DL5B /// KIR2DS1 /// KIR2DS2 /// KIR2DS3 /// KIR2DS4 /// KIR3DL3 /// KIR3DL3 /// KIR3DS1 (11738374_at) / Fold change /veh KIR2DL2 /// KIR2DL4 /// KIR2DL5A /// KIR2DL5B /// KIR2DS1 /// KIR2DS2 /// KIR2DS3 /// KIR2DS4 /// KIR3DL3 /// KIR3DL3 /// KIR3DS1 (11738374_at) / RFU C1QL1 (11718748_at) / Fold change /veh C1QL1 (11718748_at) / RFU TMPRSS4 (11747572_a_at) / Fold change /veh TMPRSS4 (11747572_a_at) / RFU HAMP (11756126_x_at) / Fold change /veh HAMP (11756126_x_at) / RFU RNFT2 (11725882_a_at) / Fold change /veh RNFT2 (11725882_a_at) / RFU NR4A2 (11747474_a_at) / Fold change /veh NR4A2 (11747474_a_at) / RFU ABCC12 (11746883_a_at) / Fold change /veh ABCC12 (11746883_a_at) / RFU TMEM136 (11760407_x_at) / Fold change /veh TMEM136 (11760407_x_at) / RFU CLDN22 /// WWC2 (11732394_at) / Fold change /veh CLDN22 /// WWC2 (11732394_at) / RFU HLA-DPB1 (11760878_x_at) / Fold change /veh HLA-DPB1 (11760878_x_at) / RFU SPINT1 (11716480_a_at) / Fold change /veh SPINT1 (11716480_a_at) / RFU GAP43 (11754022_s_at) / Fold change /veh GAP43 (11754022_s_at) / RFU A4GNT (11735810_at) / Fold change /veh A4GNT (11735810_at) / RFU PRB3 (11715151_x_at) / Fold change /veh PRB3 (11715151_x_at) / RFU TUBB4B (11761932_at) / Fold change /veh TUBB4B (11761932_at) / RFU CAPN14 (11732068_a_at) / Fold change /veh CAPN14 (11732068_a_at) / RFU TMCC2 (11721928_a_at) / Fold change /veh TMCC2 (11721928_a_at) / RFU IRGQ (11745062_a_at) / Fold change /veh IRGQ (11745062_a_at) / RFU FAM174B (11720279_a_at) / Fold change /veh FAM174B (11720279_a_at) / RFU TMPRSS4 (11748680_a_at) / Fold change /veh TMPRSS4 (11748680_a_at) / RFU FAM212B (11763350_a_at) / Fold change /veh FAM212B (11763350_a_at) / RFU PLEKHG5 (11743358_a_at) / Fold change /veh PLEKHG5 (11743358_a_at) / RFU ZSCAN30 (11745921_a_at) / Fold change /veh ZSCAN30 (11745921_a_at) / RFU CMKLR1 (11741424_a_at) / Fold change /veh CMKLR1 (11741424_a_at) / RFU LOC101060620 /// MAPK8IP1 (11723275_at) / Fold change /veh LOC101060620 /// MAPK8IP1 (11723275_at) / RFU SPTSSB (11747773_x_at) / Fold change /veh SPTSSB (11747773_x_at) / RFU PRSS12 (11739890_at) / Fold change /veh PRSS12 (11739890_at) / RFU BIN1 (11741810_x_at) / Fold change /veh BIN1 (11741810_x_at) / RFU WNT11 (11732464_a_at) / Fold change /veh WNT11 (11732464_a_at) / RFU C10orf10 (11716521_a_at) / Fold change /veh C10orf10 (11716521_a_at) / RFU C5orf56 (11738089_at) / Fold change /veh C5orf56 (11738089_at) / RFU CYB561 (11721691_x_at) / Fold change /veh CYB561 (11721691_x_at) / RFU ANKRD19P (11752326_a_at) / Fold change /veh ANKRD19P (11752326_a_at) / RFU OR2T12 /// OR2T33 /// OR2T8 (11738714_s_at) / Fold change /veh OR2T12 /// OR2T33 /// OR2T8 (11738714_s_at) / RFU VCAN (11748164_a_at) / Fold change /veh VCAN (11748164_a_at) / RFU JSRP1 (11732532_at) / Fold change /veh JSRP1 (11732532_at) / RFU KRTAP10-11 (11738290_x_at) / Fold change /veh KRTAP10-11 (11738290_x_at) / RFU MYO3A (11730013_a_at) / Fold change /veh MYO3A (11730013_a_at) / RFU EBF3 (11725865_a_at) / Fold change /veh EBF3 (11725865_a_at) / RFU CAMK2N1 (11719241_x_at) / Fold change /veh CAMK2N1 (11719241_x_at) / RFU C5orf56 (11738088_a_at) / Fold change /veh C5orf56 (11738088_a_at) / RFU OLFML3 (11715873_a_at) / Fold change /veh OLFML3 (11715873_a_at) / RFU LOC100653217 /// NTM (11731650_a_at) / Fold change /veh LOC100653217 /// NTM (11731650_a_at) / RFU MAPK11 (11762145_a_at) / Fold change /veh MAPK11 (11762145_a_at) / RFU FIZ1 (11724087_x_at) / Fold change /veh FIZ1 (11724087_x_at) / RFU OASL (11726364_x_at) / Fold change /veh OASL (11726364_x_at) / RFU SOX15 (11748057_x_at) / Fold change /veh SOX15 (11748057_x_at) / RFU CD79A (11719716_a_at) / Fold change /veh CD79A (11719716_a_at) / RFU HIST1H1D (11736915_at) / Fold change /veh HIST1H1D (11736915_at) / RFU CASKIN2 (11723855_a_at) / Fold change /veh CASKIN2 (11723855_a_at) / RFU LOC730098 (11760151_x_at) / Fold change /veh LOC730098 (11760151_x_at) / RFU OR4N2 (11742367_at) / Fold change /veh OR4N2 (11742367_at) / RFU PRRT2 (11749266_a_at) / Fold change /veh PRRT2 (11749266_a_at) / RFU SNX32 (11753110_a_at) / Fold change /veh SNX32 (11753110_a_at) / RFU CDHR5 (11726645_a_at) / Fold change /veh CDHR5 (11726645_a_at) / RFU RCAN1 (11760418_a_at) / Fold change /veh RCAN1 (11760418_a_at) / RFU FAM167A (11723789_a_at) / Fold change /veh FAM167A (11723789_a_at) / RFU FAM26E (11764081_at) / Fold change /veh FAM26E (11764081_at) / RFU ISYNA1 (11749810_s_at) / Fold change /veh ISYNA1 (11749810_s_at) / RFU ACY1 (11761880_at) / Fold change /veh ACY1 (11761880_at) / RFU 11764098_at / Fold change /veh 11764098_at / RFU SAMD14 (11745864_x_at) / Fold change /veh SAMD14 (11745864_x_at) / RFU NPB (11741838_a_at) / Fold change /veh NPB (11741838_a_at) / RFU TMPRSS6 (11731388_a_at) / Fold change /veh TMPRSS6 (11731388_a_at) / RFU KRTAP10-2 (11738614_at) / Fold change /veh KRTAP10-2 (11738614_at) / RFU ARHGAP8 /// PRR5-ARHGAP8 (11727945_x_at) / Fold change /veh ARHGAP8 /// PRR5-ARHGAP8 (11727945_x_at) / RFU KRTAP5-7 /// NADSYN1 (11734609_at) / Fold change /veh KRTAP5-7 /// NADSYN1 (11734609_at) / RFU RASL12 (11751679_a_at) / Fold change /veh RASL12 (11751679_a_at) / RFU CDKN2B (11736163_a_at) / Fold change /veh CDKN2B (11736163_a_at) / RFU PRF1 (11729649_at) / Fold change /veh PRF1 (11729649_at) / RFU, ZNF638 /// ZNF638-IT1 / Fold change vs veh, ZNF638 /// ZNF638-IT1 / RFU, PANK3 / Fold change vs veh, PANK3 / RFU, SH3YL1 / Fold change vs veh, SH3YL1 / RFU, ZEB2 / Fold change vs veh, ZEB2 / RFU, NRIP1 / Fold change vs veh, NRIP1 / RFU, PTTG1IP / Fold change vs veh, PTTG1IP / RFU, CAPN2 / Fold change vs veh, CAPN2 / RFU, MED14 / Fold change vs veh, MED14 / RFU, SNORA58 / Fold change vs veh, SNORA58 / RFU, C1orf63 / Fold change vs veh, C1orf63 / RFU, LRRFIP1 / Fold change vs veh, LRRFIP1 / RFU, NDUFAF7 / Fold change vs veh, NDUFAF7 / RFU, SLC12A2 / Fold change vs veh, SLC12A2 / RFU, IBTK / Fold change vs veh, IBTK / RFU, ESF1 / Fold change vs veh, ESF1 / Fold change vs veh, TMEM50B / RFU, TAOK1 / Fold change vs veh, TAOK1 / RFU, ACBD3 / Fold change vs veh, ACBD3 / RFU, TMA16 / Fold change vs veh, TMA16 / RFU, RWDD3 / Fold change vs veh, RWDD3 / RFU, BCAT1 / Fold change vs veh, BCAT1 / RFU, EDEM3 / Fold change vs veh, EDEM3 / RFU, TMEM33 / Fold change vs veh, TMEM33 / RFU, WDR75 / Fold change vs veh, WDR75 / RFU, AHCTF1 / Fold change vs veh, AHCTF1 / RFU, TFRC / Fold change vs veh, TFRC / RFU, ZDHHC17 / Fold change vs veh, ZDHHC17 / RFU, NOM1 / Fold change vs veh, NOM1 / RFU, ARL8B / Fold change vs veh, ARL8B / RFU, ZBTB11 / Fold change vs veh, ZBTB11 / RFU, TAMM41 / Fold change vs veh, TAMM41 / RFU, KIAA1704 /// LOC100996395 / Fold change vs veh, KIAA1704 /// LOC100996395 / RFU, ING1 / Fold change vs veh, ING1 / RFU, TRMT61B / Fold change vs veh, TRMT61B / RFU, FUBP3 / Fold change vs veh, FUBP3 / RFU, TP53 / Fold change vs veh, TP53 / RFU, TNKS2 / Fold change vs veh, TNKS2 / RFU, ZFP14 / Fold change vs veh, ZFP14 / RFU, ACTR2 / Fold change vs veh, ACTR2 / RFU, PPP3R1 / Fold change vs veh, PPP3R1 / RFU, PIK3R1 / Fold change vs veh, PIK3R1 / RFU, HNRNPA1 / Fold change vs veh, HNRNPA1 / RFU, RNF170 / Fold change vs veh, RNF170 / RFU, ZNF28 / Fold change vs veh, ZNF28 / RFU, RNGTT / Fold change vs veh, RNGTT / RFU, OGT / Fold change vs veh, OGT / RFU, BRD1 / Fold change vs veh, BRD1 / RFU, MARS / Fold change vs veh, MARS / RFU, ZNF655 / Fold change vs veh, ZNF655 / RFU, FAHD1 / Fold change vs veh, FAHD1 / RFU, BDP1 / Fold change vs veh, BDP1 / RFU, LRRCC1 / Fold change vs veh, LRRCC1 / RFU, ARID1A / Fold change vs veh, ARID1A / RFU, ZNF146 / Fold change vs veh, ZNF146 / RFU, ZNF330 / Fold change vs veh, ZNF330 / RFU, GPN3 / Fold change vs veh, GPN3 / RFU, C9orf123 / Fold change vs veh, C9orf123 / RFU, N4BP2L2 / Fold change vs veh, N4BP2L2 / RFU, ARFIP1 / Fold change vs veh, ARFIP1 / RFU, FAM179B / Fold change vs veh, FAM179B / RFU, BCL10 / Fold change vs veh, BCL10 / RFU, UHRF1BP1L / Fold change vs veh, UHRF1BP1L / RFU, BET1 / Fold change vs veh, BET1 / RFU, CNOT2 / Fold change vs veh, CNOT2 / RFU, ZNF268 / Fold change vs veh, ZNF268 / Fold change vs veh, ZNF507 / RFU, DGCR2 / Fold change vs veh, DGCR2 / RFU, WDSUB1 / Fold change vs veh, WDSUB1 / Fold change vs veh, HSP90B1 /// MIR3652 / RFU, ADSS / Fold change vs veh, ADSS / RFU, GK / Fold change vs veh, GK / RFU, ZNF148 / Fold change vs veh, ZNF148 / RFU, TAF9 / Fold change vs veh, TAF9 / RFU, SLC1A5 / Fold change vs veh, SLC1A5 / RFU, SLMO2 / Fold change vs veh, SLMO2 / RFU, ABCC4 / Fold change vs veh, ABCC4 / RFU, LOC101060439 /// RAP1B / Fold change vs veh, LOC101060439 /// RAP1B / RFU, RFX7 / Fold change vs veh, RFX7 / RFU, GTPBP10 / Fold change vs veh, GTPBP10 / RFU, CNEP1R1 / Fold change vs veh, CNEP1R1 / RFU, BIVM-ERCC5 /// ERCC5 / Fold change vs veh, BIVM-ERCC5 /// ERCC5 / RFU, ILF3 / Fold change vs veh, ILF3 / RFU 11762660_at / Fold change /veh 11762660_at / RFU VCAN (11757783_s_at) / Fold change /veh VCAN (11757783_s_at) / RFU DDX43 (11728927_at) / Fold change /veh DDX43 (11728927_at) / RFU KRT8 (11758188_x_at) / Fold change /veh KRT8 (11758188_x_at) / RFU NKD1 (11759106_at) / Fold change /veh NKD1 (11759106_at) / RFU SRD5A1 (11742802_a_at) / Fold change /veh SRD5A1 (11742802_a_at) / RFU TPSAB1 /// TPSB2 (11721975_s_at) / Fold change /veh TPSAB1 /// TPSB2 (11721975_s_at) / RFU GSTM3 (11746129_a_at) / Fold change /veh GSTM3 (11746129_a_at) / RFU IL23R (11737362_x_at) / Fold change /veh IL23R (11737362_x_at) / RFU TMEM51 (11727254_a_at) / Fold change /veh TMEM51 (11727254_a_at) / RFU PIWIL2 (11732686_x_at) / Fold change /veh PIWIL2 (11732686_x_at) / RFU ORM1 (11744905_x_at) / Fold change /veh ORM1 (11744905_x_at) / RFU CCDC152 (11743942_at) / Fold change /veh CCDC152 (11743942_at) / RFU ECM1 (11717891_a_at) / Fold change /veh ECM1 (11717891_a_at) / RFU IL23R (11748794_a_at) / Fold change /veh IL23R (11748794_a_at) / RFU TNFAIP8L3 (11732012_x_at) / Fold change /veh TNFAIP8L3 (11732012_x_at) / RFU MBOAT4 (11741988_at) / Fold change /veh MBOAT4 (11741988_at) / RFU 11764193_at / Fold change /veh 11764193_at / RFU TMEM53 (11763286_at) / Fold change /veh TMEM53 (11763286_at) / RFU MAGEB2 (11727129_at) / Fold change /veh MAGEB2 (11727129_at) / RFU TMEM200A (11744735_a_at) / Fold change /veh TMEM200A (11744735_a_at) / RFU CCDC152 (11751479_a_at) / Fold change /veh CCDC152 (11751479_a_at) / RFU FAM211A (11726209_a_at) / Fold change /veh FAM211A (11726209_a_at) / RFU RGS16 (11746705_a_at) / Fold change /veh RGS16 (11746705_a_at) / RFU VCAN (11755009_s_at) / Fold change /veh VCAN (11755009_s_at) / RFU RHOB (11743442_s_at) / Fold change /veh RHOB (11743442_s_at) / RFU RGS16 (11720943_a_at) / Fold change /veh RGS16 (11720943_a_at) / RFU RGS16 (11720944_at) / Fold change /veh RGS16 (11720944_at) / RFU, VPS4B / Fold change vs veh, VPS4B / RFU, CREB1 / Fold change vs veh, CREB1 / RFU, DNAJC13 / Fold change vs veh, DNAJC13 / RFU, GNAQ / Fold change vs veh, GNAQ / RFU, CDK5R1 / Fold change vs veh, CDK5R1 / RFU, ZRANB3 / Fold change vs veh, ZRANB3 / RFU, CUL4A / Fold change vs veh, CUL4A / RFU, CCNY / Fold change vs veh, CCNY / RFU, UFL1 / Fold change vs veh, UFL1 / RFU, COG3 / Fold change vs veh, COG3 / RFU, DIAPH2 / Fold change vs veh, DIAPH2 / RFU, SKA2 / Fold change vs veh, SKA2 / RFU, AFF3 / Fold change vs veh, AFF3 / RFU, LMF1 / Fold change vs veh, LMF1 / RFU, IPO11 / Fold change vs veh, IPO11 / RFU, DFFB / Fold change vs veh, DFFB / RFU, FOXP1 / Fold change vs veh, FOXP1 / RFU, CARD8 / Fold change vs veh, CARD8 / RFU, STRN3 / Fold change vs veh, STRN3 / RFU, ADK / Fold change vs veh, ADK / RFU, RASSF2 / Fold change vs veh, RASSF2 / RFU, WIPF1 / Fold change vs veh, WIPF1 / RFU, LARP1B / Fold change vs veh, LARP1B / RFU, RASA1 / Fold change vs veh, RASA1 / RFU, RB1 / Fold change vs veh, RB1 / RFU, PPFIA1 / Fold change vs veh, PPFIA1 / RFU, MAT2A / Fold change vs veh, MAT2A / RFU, CCT5 / Fold change vs veh, CCT5 / RFU, WDR92 / Fold change vs veh, WDR92 / RFU, CUX1 / Fold change vs veh, CUX1 / RFU, TTC7A / Fold change vs veh, TTC7A / RFU, TMEM135 / Fold change vs veh, TMEM135 / RFU, DEPTOR / Fold change vs veh, DEPTOR / RFU, CPM / Fold change vs veh, CPM / RFU, DNAJB6 / Fold change vs veh, DNAJB6 / RFU, CACNA2D3 / Fold change vs veh, CACNA2D3 / RFU, DTX4 / Fold change vs veh, DTX4 / RFU, TFCP2 / Fold change vs veh, TFCP2 / RFU, GMCL1 /// GMCL1P1 / Fold change vs veh, GMCL1 /// GMCL1P1 / RFU, AEBP2 / Fold change vs veh, AEBP2 / RFU, SNHG1 /// SNORD22 /// SNORD25 /// SNORD26 /// SNORD27 /// SNORD28 /// SNORD29 /// SNORD31 / Fold change vs veh, SNHG1 /// SNORD22 /// SNORD25 /// SNORD26 /// SNORD27 /// SNORD28 /// SNORD29 /// SNORD31 / Fold change (Aza/veh), C12orf56 (ProbeSet 11735607_a_at) / Fold change (ACY-1035/veh), C12orf56 (ProbeSet 11735607_a_at) / Fold change (Aza/veh), FGFR1OP (ProbeSet 11751329_s_at) / Fold change (ACY-1035/veh), FGFR1OP (ProbeSet 11751329_s_at) / Fold change (Aza/veh), VPS36 (ProbeSet 11739960_a_at) / Fold change (ACY-1035/veh), VPS36 (ProbeSet 11739960_a_at) / RFU SYPL1 (11715823_x_at) / Fold change /veh SYPL1 (11715823_x_at) / RFU IGFBP7 (11715501_s_at) / Fold change /veh IGFBP7 (11715501_s_at) / RFU REEP3 (11722064_at) / Fold change /veh REEP3 (11722064_at) / RFU IGLL1 (11728026_x_at) / Fold change /veh IGLL1 (11728026_x_at): dose or concentration left out as unconfirmed
Details: MV-4-11 cells, 48 hours

Nc1ncn([C@@H]2O[C@H](CO)[C@@H](O)[C@H]2O)c(=O)n1 [azacitidine]
Fold change /veh RGS16 (11720943_a_at): 1.45
